The target in this assay is T1, full length SGK1 (Homo sapiens, UniProt O00141).
T1 construct: 125 μM full length SGK1 (Life Technologies Part #PR7358A); purchased Life Technologies PR7358A
T1 sequence (O00141 1-431): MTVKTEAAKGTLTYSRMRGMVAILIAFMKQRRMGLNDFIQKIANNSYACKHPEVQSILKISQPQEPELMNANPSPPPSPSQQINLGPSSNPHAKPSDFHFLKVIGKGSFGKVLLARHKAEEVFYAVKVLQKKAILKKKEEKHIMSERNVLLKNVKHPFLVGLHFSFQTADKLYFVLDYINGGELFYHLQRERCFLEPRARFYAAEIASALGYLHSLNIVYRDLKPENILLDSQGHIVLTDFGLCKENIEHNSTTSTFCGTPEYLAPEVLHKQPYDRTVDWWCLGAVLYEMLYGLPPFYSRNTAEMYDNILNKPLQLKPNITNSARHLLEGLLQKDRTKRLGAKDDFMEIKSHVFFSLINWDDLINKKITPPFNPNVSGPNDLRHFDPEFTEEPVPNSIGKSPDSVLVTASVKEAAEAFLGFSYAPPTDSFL
Nature of the assay: SGK1 inhibition Assay A (Caliper LabChip electrophoretic separation of fluorescent peptide substrate and phosphorylated product). Type of assay: biochemical. Conditions: Assay A; 20 μM ATP, 40 min incubation; read-out: SGK1 IC50.

Molecules are shown by their SMILES. Counter-ions that a name gives are not always drawn.

Broadly, the IC50 is the concentration that inhibits the measured activity by half.

Consider `Nc1ncnn2c(-c3ccc4nncn4c3)cc(N3CCC[C@@H](NC(=O)c4ccc(Cl)s4)C3)c12` [Example 252], for which the IC50 was 0.004 µM. As for `Nc1ncnn2c(-c3ccn4nnnc4c3)cc(N3CCC[C@@H](NC(=O)c4ccc(Cl)s4)C3)c12` [Example 253, (R)-N-(1-(4-amino-7-(tetrazolo[1,5-a]pyridin-7-yl)pyrrolo[2,1-f][1,2,4]triazin-5-yl)piperidin-3-yl)-5-chlorothiophene-2-carboxamide], the figure is 0.002 µM; as for `Cc1nnc2ccc(-c3cc(N4CCC[C@@H](NC(=O)c5ccc(Cl)s5)C4)c4c(N)ncnn34)cn12` [Example 254], 0.023 µM; as for `CC(=O)N1CC=C(c2cc(N3CCC[C@@H](NC(=O)c4ccc(C)s4)C3)c3c(N)ncnn23)C1` [Example 255, (R)—N-(1-(7-(1-acetyl-2,5-dihydro-1H-pyrrol-3-yl)-4-aminopyrrolo[2,1-f][1,2,4]triazin-5-yl)piperidin-3-yl)-5-methylthiophene-2-carboxamide], 0.01 µM. Then `COc1cc(C(=O)N[C@@H]2CCCN(c3cc(C4=CCN(C(C)=O)C4)n4ncnc(N)c34)C2)sn1` [Example 256, (R)—N-(1-(7-(1-acetyl-2,5-dihydro-1H-pyrrol-3-yl)-4-aminopyrrolo[2,1-f][1,2,4]triazin-5-yl)piperidin-3-yl)-3-methoxyisothiazole-5-carboxamide], with 0.0005 µM; and `CC(=O)N1CC=C(c2cc(N3CCC[C@@H](NC(=O)c4cccc(-n5cnnc5)c4)C3)c3c(N)ncnn23)C1` [Example 257, (R)—N-(1-(7-(1-acetyl-2,5-dihydro-1H-pyrrol-3-yl)-4-aminopyrrolo[2,1-f][1,2,4]triazin-5-yl)piperidin-3-yl)-3-(4H-1,2,4-triazol-4-yl)benzamide, TFA], with 0.065 µM; and `COc1cnccc1C(=O)N[C@@H]1CCCN(c2cc(C3=CCN(C(C)=O)C3)n3ncnc(N)c23)C1` [Example 258, (R)—N-(1-(7-(1-acetyl-2,5-dihydro-1H-pyrrol-3-yl)-4-aminopyrrolo[2,1-f][1,2,4]triazin-5-yl)piperidin-3-yl)-3-methoxyisonicotinamide], with 0.067 µM.

As for `COCC(=O)N1CC=C(c2cc(N3CCC[C@@H](NC(=O)c4sc(Cl)cc4OCCN4CCOCC4)C3)c3c(N)ncnn23)C1` [Example 259, (R)—N-(1-(4-amino-7-(1-(2-methoxyacetyl)-2,5-dihydro-1H-pyrrol-3-yl)pyrrolo[2,1-f][1,2,4]triazin-5-yl)piperidin-3-yl)-5-chloro-3-(2-morpholinoethoxy)thiophene-2-carboxamide], the half-inhibitory concentration (IC50) amounted to 0.028 µM. As for `COC(C(=O)N1CC=C(c2cc(N3CCC[C@@H](NC(=O)c4sc(Cl)cc4OCCN4CCOCC4)C3)c3c(N)ncnn23)C1)C1CC1` (stereo partly drawn) [Example 260, N-((3R)-1-(4-amino-7-(1-(2-cyclopropyl-2-methoxyacetyl)-2,5-dihydro-1H-pyrrol-3-yl)pyrrolo[2,1-f] [1,2,4]triazin-5-yl)piperidin-3-yl)-5-chloro-3-(2-morpholinoethoxy)thiophene-2-carboxamide], the figure is 0.048 µM; as for `CC1(C)CC1C(=O)N1CC=C(c2cc(N3CCC[C@@H](NC(=O)c4sc(Cl)cc4OCCN4CCOCC4)C3)c3c(N)ncnn23)C1` (stereo partly drawn) [Example 261, N-((3R)-1-(4-amino-7-(1-(2,2-dimethylcyclopropane-1-carbonyl)-2,5-dihydro-1H-pyrrol-3-yl)pyrrolo[2,1-f] [1,2,4]triazin-5-yl)piperidin-3-yl)-5-chloro-3-(2-morpholinocthoxy)thiophene-2-carboxamide], 0.032 µM; as for `Nc1ncnn2c(C3=CCN(C(=O)C4(F)CC4)C3)cc(N3CCC[C@@H](NC(=O)c4sc(Cl)cc4OCCN4CCOCC4)C3)c12` [Example 263, (R)-N-(1-(4-amino-7-(1-(1-fluorocyclopropane-1-carbonyl)-2,5-dihydro-1H-pyrrol-3-yl)pyrrolo [2,1-f][1,2,4]triazin-5-yl)piperidin-3-yl)-5-chloro-3-(2-morpholinoethoxy)thiopbene-2-carboxamide], 0.012 µM. Turning to `N#CC1(C(=O)N2CC=C(c3cc(N4CCC[C@@H](NC(=O)c5sc(Cl)cc5OCCN5CCOCC5)C4)c4c(N)ncnn34)C2)CC1` [Example 264, (R)-N-(1-(4-amino-7-(1-(1-cyanocyclopropane-1-carbonyl)-2,5-dihydro-1H-pyrrol-3-yl)pyrrolo[2,1-f][1,2,4]triazin-5-yl)piperidin-3-yl)-5-chloro-3-(2-morpholinoethoxy)thiophene-2-carboxamide], the IC50 is 0.012 µM. As to `Nc1ncnn2c(C3=CCN(C(=O)C4CC45CC5)C3)cc(N3CCC[C@@H](NC(=O)c4sc(Cl)cc4OCCN4CCOCC4)C3)c12` (stereo partly drawn) [Example 265, N-((3R)-1-(4-amino-7-(1-(spiro[2.2]pentane-1-carbonyl)-2,5-dihydro-1H-pyrrol-3-yl)pyrrolo[2,1-f][1,2,4]triazin-5-yl)piperidin-3-yl)-5-chloro-3-(2-morpholinoethoxy)thiophene-2-carboxamide], the 50% inhibitory concentration (IC50) was 0.018 µM. Then `CC1CC1C(=O)N1CC=C(c2cc(N3CCC[C@@H](NC(=O)c4sc(Cl)cc4OCCN4CCOCC4)C3)c3c(N)ncnn23)C1` (stereo partly drawn) [Example 266, N-((3R)-1-(4-amino-7-(1-(2-methylcyclopropane-1-carbonyl)-2,5-dihydro-1H-pyrrol-3-yl)pyrrolo[2,1-f][1,2,4]triazin-5-yl)piperidin-3-yl)-5-chloro-3-(2-morpholinoethoxy)thiopbene-2-carboxamide], with 0.018 µM; and `Nc1ncnn2c(-c3ccnc(C(F)(F)F)c3)cc(N3CCC[C@@H](NC(=O)c4sc(Cl)cc4OCCN4CCOCC4)C3)c12` [Example 267, (R)—N-(1-(4-amino-7-(2-(trifluoromethyl)pyridin-4-yl)pyrrolo[2,1-f][1,2,4]triazin-5-yl)piperidin-3-yl)-5-chloro-3-(2-morpholinoethoxy)thiophene-2-carboxamide], with 0.009 µM. Then `CC(=O)N1CC=C(c2cc(N3CCC[C@@H](NC(=O)c4sc(C)cc4N4CCOCC4)C3)c3c(N)ncnn23)C1` [Example 268, (R)—N-(1-(7-(1-acetyl-2,5-dihydro-1H-pyrrol-3-yl)-4-aminopyrrolo[2,1-f][1,2,4]triazin-5-yl)piperidin-3-yl)-5-methyl-3-morpholinothiophene-2-carboxamide], with 0.038 µM.

As to `CC(=O)N1CC=C(c2cc(N3CCC[C@@H](NC(=O)c4sc(C)cc4N4CCN(C)CC4)C3)c3c(N)ncnn23)C1` [Example 269, (R)—N-(1-(7-(1-acetyl-2,5-dihydro-1H-pyrrol-3-yl)-4-aminopyrrolo[2,1-f][1,2,4]triazin-5-yl)piperidin-3-yl)-5-methyl-3-(4-methylpiperazin-1-yl)thiophene-2-carboxamide], the IC50 came to 0.031 µM. As for `CC(=O)N1CC=C(c2cc(N3CCC[C@@H](NC(=O)c4cc(N5CCN(C)CC5)c(C)s4)C3)c3c(N)ncnn23)C1` [Example 270, (R)—N-(1-(7-(1-acetyl-2,5-dihydro-1H-pyrrol-3-yl)-4-aminopyrrolo[2,1-f][1,2,4]triazin-5-yl)piperidin-3-yl)-5-methyl-4-(4-methylpiperazin-1-yl)thiophene-2-carboxamide], the figure is 0.049 µM.

The values are drawn from patent US20260250290A1 (BRISTOL-MYERS SQUIBB COMPANY, priority 2023, published 2026).
